From US20260098026A1, “M4 ACTIVATORS/MODULATORS AND USES THEREOF” (Cerevel Therapeutics, LLC, priority 2022, published 2026) come the findings set out here.

The target of the first test is T1, M3 muscarinic acetylcholine receptor (mAChR) (Homo sapiens, UniProt P20309).
T1 construct: expressed in transfected cells; host or cells: CHO-K1
T1 sequence (P20309 whole entry): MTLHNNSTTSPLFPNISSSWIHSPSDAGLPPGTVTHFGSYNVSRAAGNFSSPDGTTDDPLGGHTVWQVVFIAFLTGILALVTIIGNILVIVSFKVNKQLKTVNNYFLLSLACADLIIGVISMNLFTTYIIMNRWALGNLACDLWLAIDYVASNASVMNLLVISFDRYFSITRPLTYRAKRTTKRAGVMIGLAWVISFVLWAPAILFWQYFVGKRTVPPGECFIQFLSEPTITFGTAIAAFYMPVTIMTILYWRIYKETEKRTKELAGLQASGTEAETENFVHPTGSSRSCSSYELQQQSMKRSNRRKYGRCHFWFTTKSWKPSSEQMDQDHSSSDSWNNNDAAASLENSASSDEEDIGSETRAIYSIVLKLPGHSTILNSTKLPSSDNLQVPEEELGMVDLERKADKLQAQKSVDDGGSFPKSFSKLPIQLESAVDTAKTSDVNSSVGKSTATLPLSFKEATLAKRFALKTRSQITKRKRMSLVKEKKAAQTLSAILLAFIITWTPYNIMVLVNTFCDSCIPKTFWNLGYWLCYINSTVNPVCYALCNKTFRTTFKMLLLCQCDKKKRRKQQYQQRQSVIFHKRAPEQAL
Description: FLIPR calcium assay (Fluo 8), M3-overexpressing CHO-K1 cells. In kind it is cell-based. To be noted: FLIPR calcium. On the procedure:
Stimulation of a Gq-coupled G-protein coupled receptors (GPCRs), result in an efflux of calcium from the endoplasmic reticulum to the cytoplasm (Berridge, 1993), thus rendering this assay appropriate for the assessment of M1, M3 and M5 receptors. CHO-K1 cells overexpressing the M1, M3, or M5 muscarinic acetylcholine receptor (mAChR) were dispensed at 15,000 cells per well in 30 μl volume to 384-well plates and grown overnight at 37° C. in a 5% CO2 atmosphere. Fluo-8 Solution, 10 μl per well, was added to each well and incubated for 30 minutes at 37° C. in a 5% CO2 atmosphere. Compounds diluted in Hanks' balanced salt solution (HBSS) were transferred to the cell assay plate at 10 μl per well, and then read on a FLIPR instrument. EC50 and Emax figures were calculated from the resulting data for each receptor subtype.
On to `CCOC(=O)N1CC2(CC[C@@H](N3CCN(c4cc(F)cnc4-c4cccc(O)n4)CC3)C2)C1` [Compound A143], for which the EC50 is above 10 µM.

Turning to `CCOC(=O)N1CC2(CC[C@@H](N3CCN(c4cc(F)cnc4-c4cnc(OC)c(C)c4)CC3)C2)C1` [Compound A111], the EC50 is above 10 µM.

Consider `CCOC(=O)N1CC2(CC[C@@H](N3CCN(c4cc(F)cnc4-c4c(C)n[nH]c4C)CC3)C2)C1` [Compound A81], for which the EC50 was above 10 µM.

For the molecule `CCOC(=O)N1CC2(CC[C@@H](N3CCN(c4cc(F)cnc4-c4ccc5nn(C)cc5c4)CC3)C2)C1` [Compound A33], the concentration giving a half-maximal response (EC50) was above 10 µM.

Take `CCOC(=O)N1CC2(CC[C@@H](N3CCN(c4cc(F)cnc4-c4cccc(F)n4)CC3)C2)C1` [Compound A128]: the 50% effective concentration (EC50) was above 10 µM.

With `CCOC(=O)N1CC2(CC[C@@H](N3CCN(c4cc(F)cnc4-c4ccnc5[nH]ccc45)CC3)C2)C1` [Compound A30], the EC50 is above 10 µM.

For `CCOC(=O)N1CC2(CC[C@@H](N3CCN(c4cc(F)cnc4-c4ccnc(F)c4C)CC3)C2)C1` [Compound A114], the EC50 was above 10 µM.

As for `CCOC(=O)N1CC2(CC[C@@H](N3CCN(c4cc(F)cnc4-c4c[nH]nc4C(F)(F)F)CC3)C2)C1` [Compound A85], the concentration for a half-maximal effect (EC50) was above 10 µM.

For the molecule `CCOC(=O)N1CC2(CC[C@@H](N3CCN(c4cc(F)cnc4-c4cccnc4)CC3)C2)C1` [Compound A37], the EC50 is above 10 µM.

For the molecule `CCOC(=O)N1CC2(CC[C@@H](N3CCN(c4cc(F)cnc4-c4ccn(C)c(=O)c4)CC3)C2)C1` [Compound A102], the EC50 is above 10 µM.

As to `CCOC(=O)N1CC2(CC[C@@H](N3CCN(c4cc(F)cnc4-c4ccccc4C#N)CC3)C2)C1` [Compound A47], the EC50 was above 10 µM.

`CCOC(=O)N1CC2(CC[C@@H](N3CCN(c4cc(F)cnc4-c4ccc(OCC)nc4)CC3)C2)C1` [Compound A107]: the EC50 was above 10 µM.

Consider `CCOC(=O)N1CC2(CC[C@@H](N3CCN(c4cc(F)cnc4-c4ccc(OC)cc4CO)CC3)C2)C1` [Compound A145], for which the EC50 is above 10 µM.

As to `CCOC(=O)N1CC2(CC[C@@H](N3CCN(c4cc(F)cnc4-c4cccc(C(=O)NC)c4)CC3)C2)C1` [Compound A97], the EC50 was above 10 µM.

`CCOC(=O)N1CC2(CC[C@@H](N3CCN(c4cc(F)cnc4-c4ccc(F)cc4CO)CC3)C2)C1` [Compound A147]: the 50% effective concentration (EC50) was above 10 µM.

For `CCOC(=O)N1CC2(CC[C@@H](N3CCN(c4cc(F)cnc4-c4cccc(OC)n4)CC3)C2)C1` [Compound A133], the EC50 is above 10 µM.

As for `CCOC(=O)N1CC2(CC[C@@H](N3CCN(c4cc(F)cnc4-c4ccc(C)nc4OC)CC3)C2)C1` [Compound A116], the EC50 was above 10 µM.

`CCOC(=O)N1CC2(CC[C@@H](N3CCN(c4cc(F)cnc4-c4cc(C)nc(F)c4)CC3)C2)C1` [Compound A125]: the EC50 is above 10 µM.

As to `CCOC(=O)N1CC2(CC[C@@H](N3CCN(c4cc(F)cnc4-c4ccc(O)c(F)c4)CC3)C2)C1` [Compound A44], the EC50 is above 10 µM.

Consider `CCOC(=O)N1CC2(CC[C@@H](N3CCN(c4cc(F)cnc4-c4ccc(F)cc4O)CC3)C2)C1` [Compound A115], for which the EC50 was above 10 µM.

As for `CCOC(=O)N1CC2(CC[C@@H](N3CCN(c4cc(F)cnc4-c4ccncc4F)CC3)C2)C1` [Compound A45], the half-maximal effective concentration (EC50) was above 10 µM.

The target in a further test is T2, M4 mAChR (Homo sapiens, UniProt P08173).
T2 construct: expressed in transfected cells; host or cells: CHO-K1
T2 sequence (P08173 1-479): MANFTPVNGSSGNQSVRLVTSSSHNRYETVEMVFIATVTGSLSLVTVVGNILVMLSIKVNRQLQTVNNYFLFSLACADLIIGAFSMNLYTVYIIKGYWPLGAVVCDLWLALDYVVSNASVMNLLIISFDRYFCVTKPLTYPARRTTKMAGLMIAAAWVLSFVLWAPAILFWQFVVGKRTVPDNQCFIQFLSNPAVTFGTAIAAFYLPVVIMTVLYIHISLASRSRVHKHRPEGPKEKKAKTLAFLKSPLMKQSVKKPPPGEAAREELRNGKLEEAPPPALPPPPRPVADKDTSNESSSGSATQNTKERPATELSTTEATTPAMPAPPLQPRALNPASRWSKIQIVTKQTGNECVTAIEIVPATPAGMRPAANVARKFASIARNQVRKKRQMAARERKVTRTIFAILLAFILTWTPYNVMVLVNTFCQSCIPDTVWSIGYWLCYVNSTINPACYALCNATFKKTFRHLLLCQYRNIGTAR
Description: cAMP TR-FRET assay with forskolin, M4-overexpressing CHO-K1 cells. The following applies: cAMP TR-FRET with forskolin. The format is cell-based. The text has this: The M2 and M4 mACh receptors are Gi-coupled receptors which, upon activation, produce a decrease in cAMP. Assays were developed that measured the potency and efficacy of compounds at the M2 or M4 mAChR using M2- or M4-overexpressing CHO-K1 cell lines. Time-resolved fluorescence resonance energy transfer (TR-FRET) technology was used, where signal occurs as a result of transfer of energy if the donor molecule is in close proximity to an acceptor molecule when the molecules have bound to the molecule of interest. The cAMP detection is a competition binding assay, where cAMP produced by cells competes for binding with the labeled donor molecule to the anti-cAMP acceptor antibody. Due to the low basal levels of cAMP in the CHO-K1 cell line, forskolin was used to increase cAMP levels to enable assessment of agonist activity at the mAChR of interest.
`CCOC(=O)N1CC2(CC[C@@H](N3CCN(c4cc(F)cnc4-c4cccc(O)n4)CC3)C2)C1` [Compound A143]: the maximal effect (Emax) lay in the range of 80 to 100%.

The molecule `CCOC(=O)N1CC2(CC[C@@H](N3CCN(c4cc(F)cnc4-c4cnc(OC)c(C)c4)CC3)C2)C1` [Compound A111] had an Emax of 80 to 100%.

For `CCOC(=O)N1CC2(CC[C@@H](N3CCN(c4cc(F)cnc4-c4c(C)n[nH]c4C)CC3)C2)C1` [Compound A81], the Emax was in the range of 80 to 100%.

Molecule `CCOC(=O)N1CC2(CC[C@@H](N3CCN(c4cc(F)cnc4-c4ccc5nn(C)cc5c4)CC3)C2)C1` [Compound A33] came in with a maximal response (Emax) of 80 to 100%.

As for `CCOC(=O)N1CC2(CC[C@@H](N3CCN(c4cc(F)cnc4-c4cccc(F)n4)CC3)C2)C1` [Compound A128], the Emax lay within 80 to 100%.

In turn, `CCOC(=O)N1CC2(CC[C@@H](N3CCN(c4cc(F)cnc4-c4ccnc5[nH]ccc45)CC3)C2)C1` [Compound A30] came in with an Emax of 80 to 100%.

In the case of `CCOC(=O)N1CC2(CC[C@@H](N3CCN(c4cc(F)cnc4-c4ccnc(F)c4C)CC3)C2)C1` [Compound A114], the maximal response (Emax) lay in the range of 80 to 100%.

`CCOC(=O)N1CC2(CC[C@@H](N3CCN(c4cc(F)cnc4-c4c[nH]nc4C(F)(F)F)CC3)C2)C1` [Compound A85] gave an Emax of 80 to 100%.

`CCOC(=O)N1CC2(CC[C@@H](N3CCN(c4cc(F)cnc4-c4cccnc4)CC3)C2)C1` [Compound A37] returned an Emax of 80 to 100%.

`CCOC(=O)N1CC2(CC[C@@H](N3CCN(c4cc(F)cnc4-c4ccn(C)c(=O)c4)CC3)C2)C1` [Compound A102] came in with an Emax of 80 to 100%.

The molecule `CCOC(=O)N1CC2(CC[C@@H](N3CCN(c4cc(F)cnc4-c4ccccc4C#N)CC3)C2)C1` [Compound A47] displayed an Emax of 80 to 100%.

In turn, `CCOC(=O)N1CC2(CC[C@@H](N3CCN(c4cc(F)cnc4-c4ccc(OCC)nc4)CC3)C2)C1` [Compound A107] returned an Emax of 80 to 100%.

The molecule `CCOC(=O)N1CC2(CC[C@@H](N3CCN(c4cc(F)cnc4-c4ccc(OC)cc4CO)CC3)C2)C1` [Compound A145] displayed an Emax of 80 to 100%.

`CCOC(=O)N1CC2(CC[C@@H](N3CCN(c4cc(F)cnc4-c4cccc(C(=O)NC)c4)CC3)C2)C1` [Compound A97] had an Emax of 80 to 100%.

`CCOC(=O)N1CC2(CC[C@@H](N3CCN(c4cc(F)cnc4-c4ccc(F)cc4CO)CC3)C2)C1` [Compound A147] showed an Emax of 80 to 100%.

For `CCOC(=O)N1CC2(CC[C@@H](N3CCN(c4cc(F)cnc4-c4cccc(OC)n4)CC3)C2)C1` [Compound A133], the maximum response (Emax) fell in the range of 19 to 49.9%.

As to `CCOC(=O)N1CC2(CC[C@@H](N3CCN(c4cc(F)cnc4-c4ccc(C)nc4OC)CC3)C2)C1` [Compound A116], the Emax lay within 80 to 100%.

`CCOC(=O)N1CC2(CC[C@@H](N3CCN(c4cc(F)cnc4-c4cc(C)nc(F)c4)CC3)C2)C1` [Compound A125] showed an Emax of 80 to 100%.

The molecule `CCOC(=O)N1CC2(CC[C@@H](N3CCN(c4cc(F)cnc4-c4ccc(O)c(F)c4)CC3)C2)C1` [Compound A44] showed a maximal effect (Emax) of 80 to 100%.

`CCOC(=O)N1CC2(CC[C@@H](N3CCN(c4cc(F)cnc4-c4ccc(F)cc4O)CC3)C2)C1` [Compound A115]: the Emax was in the range of 80 to 100%.

For the molecule `CCOC(=O)N1CC2(CC[C@@H](N3CCN(c4cc(F)cnc4-c4ccncc4F)CC3)C2)C1` [Compound A45], the Emax lay within 80 to 100%.

Usually EC50 stands for the midpoint of the concentration-response curve. By Emax is commonly meant the maximal effect, on the per cent scale that the assay sets.
